Common to all, as to format: cell-based
Data set [1] addresses T1, human ERG (ether-a-go-go related gene) potassium channel (Homo sapiens, UniProt Q12809).
T1 construct: expressed in transfected cells; host or cells: HEK293
In words: hERG channel whole-cell patch clamp (Ion Channel Activity Measurement). Conditions: room temperature; for hERG 1 μM (ion-channel inhibition): 1 μM test article; for hERG 10 μM (ion-channel inhibition): 10 μM test article. The essentials: (§1)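 HEK293 cells stably expressing hERG (NM_000238) were recorded by whole-cell patch clamp at 23-25° C. Holding potential −80 mV, step to 30 mV for 2.5 s, tail currents at −50 mV for 4 s, pulses every 10 s. Each concentration was perfused low to high for 5 min or to steady state, with each cell as its own control.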
A general note: The hERG channel carries a current that helps repolarise heart muscle cells.

The target of data set [2] is T2, human calcium channel, voltage-dependent, L type (CaV1.2: CACNA1C, CACNB2, CACNA2D1) (Homo sapiens, UniProt Q13936).
T2 construct: expressed in transfected cells; host or cells: CHO
In words: CaV1.2 channel whole-cell patch clamp (Ion Channel Activity Measurement). To be noted: room temperature; for Cav1.2 1 μM (ion-channel inhibition): 1 μM test article; for CaV 1.2 10 μM (ion-channel inhibition): 10 μM test article. Put shortly:
(§2)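 Whole-cell patch clamp was run on CHO cells stably expressing CACNA1C/CACNB2/CACNA2D1 at 23–25 °C, with 10 mM CaCl2 TEA bath (pH 7.4) and CsCl pipette solution (pH 7.2). Currents were evoked from −80 mV to +10 mV for 0.3 s every 20 s without leak subtraction. Ascending concentrations were each applied for 5 min or until steady state.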

Data set [3] concerns the target T3, Iks potassium voltage-gated channel (KCNQ1 and KCNE1) (Homo sapiens, UniProt P51787).
T3 construct: expressed in transfected cells; host or cells: CHO
In words: Iks channel whole-cell patch clamp (Ion Channel Activity Measurement). Conditions: room temperature. On the technique in general: Patch clamp records ionic current or voltage across a cell membrane.
Procedure: (§3) CHO cell line stably expressing Iks potassium voltage-gated channel subfamily Q member 1(KCNQ1) and potassium voltage-gated channel subfamily E regulatory subunit 1 (KCNE1), cDNA strictly similar to GenBank accession number: NM_000218 and NM_000219
(§4) Cells expressing channels were cultured in medium supplemented with 20% FBS in HAM'S F12 culture dish. Cells grew in a humidified incubator at 37° C. under 5% carbon dioxide. To passage cells, remove poor medium and rinse the cells once with PBS 1X. […] Place plate on a 37° C. warming incubator 5 min. As soon as cells are detached, add 5 ml of 37° C. complete medium. Draw cell suspension into a sterile pipet and homogenize cells gently to dissociate cells aggregates. Amplify or maintain the cells by seeding 2.5*105 cells in a 6 cm dish (final volume: 5 ml). To maintain electrophysiological performances, cell density must not exceed 80%. On the day before patch clamp experiment, 3*103 cells were seeded on coverslips in the 24-well plate and incubated at 37° C. in 5% carbon dioxide.
(§5) Extracellular solution (mM): 140 NaCl, 2.5 KCl, 1 MgCl2, 2 CaCl2, 5 Glucose, 10 HEPES, pH=7.4 with NaOH.
(§6) Pipette solution (mM): 120 K-aspartic, 10 HEPES, 5 MgCl2, 5 EGTA, 4 Na2-ATP 0.3 Na2-GTP, 14 mM Phosphocreatine disodium salt, 20 u/mL Creatine phosphor kinse pH 7.2 with KOH
(§7) Glass pipette (BF150-86-10, Sutter Instruments) was made by puller (P97, Sutter Instruments). The glass pipette was manipulated using Micro-manipulator (Carm-C-S, MCI Instruments) under the microscope (AE31EF-INV, Motic). After touching the cell, a slight suction was applied to achieve high seal (GΩ). Fast capacitance (in pF) compensation was made after high seal was achieved; after achieving high seal, the membrane was broken, Cell capacitance (in pF) compensation was made from whole-cell capacitance compensation after the whole cell mode was achieved. No leak subtraction was made.
(§8) Cell was incubated with the test article for 5 minutes, or until the current reached a steady-state level. Multiple concentrations of test article were tested. The test articles were applied gradually from low to high concentration. The test and control solutions were flown into a recording chamber mounted on the stage of an inverted microscope via a gravity-fed solution delivery system. During the experiment, solutions were withdrawn from the recording chamber by vacuum aspiration. Each concentration was tested at multiple times. Each cell acted as its own control. All tests were performed at room temperature (23-25° C.).
(§9) IKs current was measured using a pulse protocol consisting of −80 mV holding potential increment up to +60 mV over a period of 5 seconds. And then quickly repolarizedat −40 mV and maintained for 4 seconds.

Data set [4] addresses T4, hERG (human ether-a-go-go related gene potassium channel, KCNH2) (Homo sapiens, UniProt Q12809).
T4 construct: expressed in transfected cells; host or cells: HEK293
In words: hERG channel whole-cell patch clamp (Ion Channel Activity Measurement). Conditions: human, HEK293 cells expressing the human ERG potassium channel, room temperature; for inhibition at 1 μM: pH 7.4, 1 μM test article; for inhibition at 10 μM: pH 7.4, 10 μM test article. Put shortly:
as §1

Data set [5] deals with T5, Iks potassium channel (KCNQ1/KCNE1) (Homo sapiens, UniProt P51787).
T5 construct: expressed in transfected cells; host or cells: CHO
T5 sequence (P51787 whole entry): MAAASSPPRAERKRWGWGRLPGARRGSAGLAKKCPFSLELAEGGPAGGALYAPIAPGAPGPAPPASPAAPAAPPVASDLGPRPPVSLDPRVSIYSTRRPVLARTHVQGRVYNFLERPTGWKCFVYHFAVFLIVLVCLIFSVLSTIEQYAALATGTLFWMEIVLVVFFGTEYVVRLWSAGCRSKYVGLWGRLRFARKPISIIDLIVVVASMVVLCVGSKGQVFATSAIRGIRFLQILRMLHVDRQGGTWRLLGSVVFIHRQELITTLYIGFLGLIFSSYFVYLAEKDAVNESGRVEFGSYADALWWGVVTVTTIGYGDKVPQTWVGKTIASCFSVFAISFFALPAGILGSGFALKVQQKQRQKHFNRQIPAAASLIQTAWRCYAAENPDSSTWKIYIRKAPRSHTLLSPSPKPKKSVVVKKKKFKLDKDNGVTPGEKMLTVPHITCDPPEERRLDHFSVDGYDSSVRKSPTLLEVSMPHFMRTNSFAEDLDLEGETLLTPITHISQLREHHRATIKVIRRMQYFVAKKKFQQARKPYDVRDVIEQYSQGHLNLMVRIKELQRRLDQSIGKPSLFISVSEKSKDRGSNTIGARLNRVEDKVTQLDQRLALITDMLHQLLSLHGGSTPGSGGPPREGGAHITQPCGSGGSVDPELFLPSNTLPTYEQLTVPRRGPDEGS
In words: Iks channel whole-cell patch clamp (Ion Channel Activity Measurement). Conditions: human, CHO cells stably expressing Iks channel (KCNQ1 and KCNE1), room temperature; for inhibition at 5 min, 1 μM: pH 7.4, 1 μM test article; for inhibition at 5 min, 10 μM: pH 7.4, 10 μM test article.
Procedure: as §3, §4, §5, §6, §7, §8, §9

For data set [6], the target named is T6, CaV1.2 (L-type voltage-dependent calcium channel; CACNA1C, CACNB2, CACNA2D1) (Homo sapiens, UniProt Q13936).
T6 construct: expressed in transfected cells; host or cells: CHO
In words: CaV1.2 channel whole-cell patch clamp (Ion Channel Activity Measurement). Conditions: human, room temperature; for inhibition at 5 min, 1 μM: pH 7.4, 1 μM test article; for inhibition at 5 min, 10 μM: pH 7.4, 10 μM test article, read-out: CaV 1.2 10 μM (ion-channel inhibition). The essentials:
as §2

Structures can show the parent of a compound that is named as a salt.

As a reminder, the inhibition is how much of the control response was suppressed.

T1 sequence (Q12809 whole entry): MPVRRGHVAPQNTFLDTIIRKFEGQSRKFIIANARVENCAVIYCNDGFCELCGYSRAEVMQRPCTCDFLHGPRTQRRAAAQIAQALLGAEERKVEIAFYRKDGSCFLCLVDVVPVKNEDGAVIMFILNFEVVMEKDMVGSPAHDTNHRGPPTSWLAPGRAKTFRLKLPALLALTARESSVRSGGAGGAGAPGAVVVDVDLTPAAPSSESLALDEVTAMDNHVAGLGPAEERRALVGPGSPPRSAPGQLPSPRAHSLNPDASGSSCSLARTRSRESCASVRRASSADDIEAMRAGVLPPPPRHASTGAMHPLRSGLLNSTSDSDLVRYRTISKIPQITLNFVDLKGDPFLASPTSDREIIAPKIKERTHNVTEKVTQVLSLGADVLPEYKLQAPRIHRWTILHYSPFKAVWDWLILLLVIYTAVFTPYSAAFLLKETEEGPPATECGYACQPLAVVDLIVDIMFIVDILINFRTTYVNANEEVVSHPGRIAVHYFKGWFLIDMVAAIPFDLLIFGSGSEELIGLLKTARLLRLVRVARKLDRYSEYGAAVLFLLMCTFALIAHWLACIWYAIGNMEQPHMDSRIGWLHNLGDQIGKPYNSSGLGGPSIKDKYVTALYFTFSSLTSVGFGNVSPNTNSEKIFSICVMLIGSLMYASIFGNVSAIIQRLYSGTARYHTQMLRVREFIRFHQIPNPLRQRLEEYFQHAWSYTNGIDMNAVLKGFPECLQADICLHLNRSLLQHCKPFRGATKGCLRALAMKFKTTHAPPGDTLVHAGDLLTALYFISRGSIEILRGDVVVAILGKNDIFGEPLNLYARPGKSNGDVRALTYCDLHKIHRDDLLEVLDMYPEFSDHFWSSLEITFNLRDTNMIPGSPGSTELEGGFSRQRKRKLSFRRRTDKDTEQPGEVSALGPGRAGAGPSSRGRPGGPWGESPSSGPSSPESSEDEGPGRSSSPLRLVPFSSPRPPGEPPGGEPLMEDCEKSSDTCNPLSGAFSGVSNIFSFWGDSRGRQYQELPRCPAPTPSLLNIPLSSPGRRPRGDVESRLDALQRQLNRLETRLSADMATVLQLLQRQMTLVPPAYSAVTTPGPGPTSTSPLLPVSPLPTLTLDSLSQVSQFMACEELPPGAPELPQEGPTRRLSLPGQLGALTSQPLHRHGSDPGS
T4 sequence (Q12809 whole entry): as above
T3 sequence (P51787 whole entry): as the sequence (P51787 whole entry) above

`Oc1cccc(-c2ccccc2)c1Cc1c(O)cccc1-c1ccccc1` [Compound A034, 2,2″-methylenebis(([1,1′-biphenyl]-3-ol))]: in data set [1], the “hERG 1 μM (ion-channel inhibition)” value is on record as “D (D = <25%)” and the “hERG 10 μM (ion-channel inhibition)” value is recorded as “D (D = <25%)”. Besides, in data set [2], the “Cav1.2 1 μM (ion-channel inhibition)” value is listed as “D (D = <25%)” and the “CaV 1.2 10 μM (ion-channel inhibition)” value was “B (B = = 50-75%)”.

Take `CCN(CC)CCOc1ccc2ccccc2c1Cc1c(O)ccc2ccccc12.O=CO` [Compound A093, 1-((2-(2-(diethylamino)ethoxy)naphthalen-1-yl)methyl)naphthalen-2-ol formate]: in data set [1], the “hERG 1 μM (ion-channel inhibition)” value is listed as “A (A = 75-100%)” and the “hERG 10 μM (ion-channel inhibition)” value was “A (A = 75-100%)”. In data set [3] (1 μM test article), the “Iks 1 μM (ion-channel inhibition)” value was “D (D = <25%)”. The “Iks 10 μM (ion-channel inhibition)” value in data set [3] (10 μM test article) is on record as “A (A = 75-100%)”. Also, in data set [2], the “Cav1.2 1 μM (ion-channel inhibition)” value is “C (C = 25-50%)” and the “CaV 1.2 10 μM (ion-channel inhibition)” value is “A (A = 75-100%)”.

For `COc1ccc2ccccc2c1Cc1c(OCC[N+]2(C)CCOCC2)ccc2ccccc12` [Compound A130-2, 4-(2-((1-((2-methoxynaphthalen-1-yl)methyl)naphthalen-2-yl)oxy)ethyl)-4-methylmorpholin-4-ium formate], in data set [4], the inhibition at 1 μM lay in the range of 75 to 100%. Moreover, in data set [5], the inhibition at 5 min, 1 μM was less than 25% and the inhibition at 5 min, 10 μM is 25 to 50%. Also, in data set [6], the inhibition at 5 min, 1 μM fell in the range of 50 to 75% and the inhibition at 5 min, 10 μM was 75 to 100%.

Turning to `CN(C)CCOc1ccc2ccccc2c1Cc1c(O)ccc2ccccc12` [Compound A134, 1-((2-(2-(dimethylamino)ethoxy)naphthalen-1-yl)methyl)naphthalen-2-ol], in data set [4], the inhibition at 1 μM is 75 to 100% and the inhibition at 10 μM lay in the range of 75 to 100%. Moreover, in data set [5], the inhibition at 5 min, 1 μM fell in the range of 25 to 50% and the inhibition at 5 min, 10 μM was 75 to 100%. Further, in data set [6], the inhibition at 5 min, 1 μM was less than 25% and the inhibition at 5 min, 10 μM lay within 75 to 100%.

In data set [4], `CCN(CC)CCCOc1ccc2ccccc2c1Cc1c(O)ccc2ccccc12` [Compound A135, 1-((2-(3-(diethylamino)propoxy)naphthalen-1-yl)methyl)naphthalen-2-ol] showed an inhibition at 1 μM of 75 to 100% and an inhibition at 10 μM of 75 to 100%. In data set [5], the inhibition at 5 min, 1 μM was less than 25% and the inhibition at 5 min, 10 μM is 75 to 100%. For the same compound, in data set [6], the inhibition at 5 min, 1 μM lay in the range of 25 to 50% and the inhibition at 5 min, 10 μM is 75 to 100%.

As for `CCN(CC)CCOc1ccc2ccccc2c1Sc1c(O)ccc2ccccc12` [Compound A151, 1-((2-(2-(diethylamino)ethoxy)naphthalen-1-yl)thio)naphthalen-2-ol], in data set [4], the inhibition at 1 μM fell in the range of 75 to 100% and the inhibition at 10 μM was 75 to 100%. In data set [5], this compound showed an inhibition at 5 min, 1 μM of 25 to 50% and an inhibition at 5 min, 10 μM of 75 to 100%. In data set [6], the inhibition at 5 min, 1 μM is less than 25% and the inhibition at 5 min, 10 μM was 75 to 100%.

In data set [4], `CCN(CC)CCOc1ccc2ccccc2c1Sc1c(OC)ccc2ccccc12` [Compound A152, N,N-diethyl-2-((1-((2-methoxynaphthalen-1-yl)thio)naphthalen-2-yl)oxy)ethan-1-amine] registered an inhibition at 1 μM of 75 to 100%. In data set [5], this compound registered an inhibition at 5 min, 1 μM of less than 25% and an inhibition at 5 min, 10 μM of 50 to 75%. In data set [6], the inhibition at 5 min, 1 μM was less than 25% and the inhibition at 5 min, 10 μM fell in the range of 75 to 100%.

Consider `CC[N+](C)(CC)CCOc1ccc2ccccc2c1Sc1c(OC)ccc2ccccc12` [Compound A191, diethyl(2-((1-((2-methoxynaphthalen-1-yl)thio)naphthalen-2-yl)oxy)ethyl)(methyl)-14-azane, iodide salt], for which, in data set [4], the inhibition at 1 μM was 75 to 100% and the inhibition at 10 μM fell in the range of 75 to 100%. In data set [5], this compound came in with an inhibition at 5 min, 1 μM of less than 25%. For the same compound, in data set [6], the inhibition at 5 min, 1 μM is 25 to 50% and the inhibition at 5 min, 10 μM was 75 to 100%.

For the origin of these results see US12187681B2 (Shanghai East Hospital, priority 2019, dated 2025).
